We go through ten molecules from ChEMBL document CHEMBL1201862, “PubChem BioAssay data set” (2004).

Among the test systems are CCRF-CEM; SF-539; HL-60; IGROV-1; LOX IMVI; SK-MEL-28; SN12C; HCT-116; K562; MDA-N; CAKI-1; HOP-92; Hs-578T; ACHN; OVCAR-3; RPMI-8226; OVCAR-5; HOP-62; U-251; 786-0.
Holding throughout (assay): growth of human tumour cells (NCI), 48 h

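The compound was tested at five concentrations on cells cultured in 96-well plates, with a 48-hour exposure period. GI50: concentration for 50% inhibition of growth.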 The source made the active and inactive calls. Rule as the data show it: active = GI50 up to about 1.1 µM and inactive = higher. Where only a bound is given, the exact number is not on record here.

Consider `O=C1C(N2CCN(CCOCCO)CC2)=C(Cl)C(=O)c2ncccc21`, for which the GI50 with CCRF-CEM is 1.92 µM (inactive); in the test on SF-539, 21.1 µM (inactive); with HL-60, 3.06 µM (inactive); with IGROV-1, 16.9 µM (inactive); in the test with LOX IMVI, 12.7 µM (inactive); with SK-MEL-28 it was 22.2 µM (inactive). Also, the GI50 in the test with SN12C is 19.5 µM (inactive); in the test with HCT-116, 5.71 µM (inactive); in the test with K562 it was 3.2 µM (inactive); in the test with MDA-N it was 1.97 µM (inactive); in the test on CAKI-1, 17.3 µM (inactive); with HOP-92, 2.62 µM (inactive). In addition, the GI50 is > 10 µM (inactive) with Hs-578T; 19.1 µM (inactive) in the test on ACHN; 18.5 µM (inactive) in the test with OVCAR-3; 19 µM (inactive) in the test with RPMI-8226; 24.5 µM (inactive) in the test with OVCAR-5; > 10 µM (inactive) with HOP-62. Also, the GI50 in the test on U-251 is 18.7 µM (inactive); with 786-0 it was 21.4 µM (inactive).

Consider `N#CC(C#N)=C/C=C/c1c(Cl)cccc1Cl`, for which the GI50 with CCRF-CEM is 1.34 µM (inactive); in the test on SF-539, 1.28 µM (inactive); with HL-60, 0.698 µM (active); in the test on IGROV-1, 2.16 µM (inactive); in the test on LOX IMVI, 1.73 µM (inactive); with SK-MEL-28, 1.64 µM (inactive). For the same molecule, the GI50 in the test with SN12C was 1.8 µM (inactive); in the test with HCT-116, 1.34 µM (inactive); with K562 it was 2.55 µM (inactive); in the test with MDA-N, 1.62 µM (inactive); in the test with CAKI-1 it was 1.93 µM (inactive); in the test with HOP-92, 2.42 µM (inactive). Moreover, the GI50 in the test on Hs-578T is 1.97 µM (inactive); in the test on ACHN it was 1.6 µM (inactive); in the test on OVCAR-3, 2.13 µM (inactive); in the test with RPMI-8226, 1.78 µM (inactive); in the test on HOP-62, 2.74 µM (inactive); with U-251, 1.81 µM (inactive). The GI50 in the test on 786-0 is 1.71 µM (inactive).

As to `CC(=O)O[C@H]1C(=O)[C@@]2(C)C(C(OC(=O)c3ccccc3)[C@]3(O)CC(OC(=O)C(O)C(NC(=O)c4ccccc4)c4ccc(F)cc4)C(C)=C1C3(C)C)[C@]1(OC(C)=O)CO[C@@H]1C[C@@H]2O` (stereo not given in full), the GI50 was 0.0014 µM (active) with CCRF-CEM; < 0.001 µM (active) with SF-539; < 0.001 µM (active) with HL-60; 0.00365 µM (active) in the test with IGROV-1; 0.00129 µM (active) in the test on LOX IMVI; 0.00158 µM (active) in the test on SN12C. The GI50 in the test with HCT-116 is < 0.001 µM (active); in the test with K562, < 0.001 µM (active); in the test with MDA-N it was < 0.001 µM (active); in the test on CAKI-1 it was 0.0942 µM (active); in the test with HOP-92, 3.43 µM (inactive); in the test with Hs-578T it was < 0.001 µM (active). Besides, the GI50 with ACHN is 0.0139 µM (active); in the test on OVCAR-3, < 0.001 µM (active); in the test with RPMI-8226, < 0.001 µM (active); in the test with OVCAR-5, 0.00141 µM (active); with HOP-62 it was 0.00233 µM (active); in the test with U-251, 0.00124 µM (active). Further, the GI50 with 786-0 is 0.00152 µM (active).

With `CC1=NN(c2cccc(Cl)c2)C2(C1=Cc1ccc(O)cc1)C(Cl)C(=O)N2c1nc2ccccc2s1` (stereo not given), the GI50 was 28.6 µM (inactive) with CCRF-CEM; 35.4 µM (inactive) in the test with SF-539; 26.4 µM (inactive) with HL-60; 14.1 µM (inactive) in the test on IGROV-1; 22.1 µM (inactive) with LOX IMVI; 29 µM (inactive) in the test on SK-MEL-28. Further, the GI50 in the test with HCT-116 is 15.9 µM (inactive); in the test on K562 it was 18.6 µM (inactive); with MDA-N, 23.3 µM (inactive); with CAKI-1, 27.1 µM (inactive); with HOP-92, 15.1 µM (inactive); in the test on Hs-578T, 40.6 µM (inactive). Further, the GI50 with ACHN was 19.7 µM (inactive); with OVCAR-3, 26 µM (inactive); in the test with RPMI-8226 it was 17.5 µM (inactive); in the test on OVCAR-5, 29.4 µM (inactive); in the test on HOP-62, 20.9 µM (inactive); in the test on U-251, 20 µM (inactive). Further, the GI50 in the test with 786-0 is 24.3 µM (inactive).

With `C=C(C)C(O)CCC1(C)C=Cc2c(c(C)cc3c2[nH]c2ccccc23)O1` (stereo not given), the GI50 in the test on CCRF-CEM was 7.74 µM (inactive); in the test with SF-539 it was 4.27 µM (inactive); in the test on HL-60 it was 6.68 µM (inactive); in the test on IGROV-1, 17.1 µM (inactive); in the test on LOX IMVI, 4.12 µM (inactive); in the test on SK-MEL-28, 16.7 µM (inactive). The GI50 in the test with SN12C is 12.8 µM (inactive); in the test with HCT-116 it was 13.2 µM (inactive); in the test with K562, 6.25 µM (inactive); in the test with MDA-N it was 3.58 µM (inactive); with HOP-92 it was 7.01 µM (inactive); with Hs-578T, 3.17 µM (inactive). The GI50 with ACHN was 4.86 µM (inactive); in the test on OVCAR-3, 7.52 µM (inactive); with RPMI-8226, 9.77 µM (inactive); in the test on OVCAR-5 it was 4.2 µM (inactive); in the test with HOP-62, 4.75 µM (inactive); in the test with U-251 it was 5.01 µM (inactive). Besides, the GI50 with 786-0 is 4.91 µM (inactive).

For `CC[C@@H]([C@H](O)c1ccccc1Cl)[N+](=O)[O-]`, the GI50 is 19.2 µM (inactive) with CCRF-CEM; 59 µM (inactive) with SF-539; 7.82 µM (inactive) in the test with HL-60; > 100 µM (inactive) in the test on IGROV-1; > 100 µM (inactive) with LOX IMVI; > 100 µM (inactive) in the test on SK-MEL-28. Besides, the GI50 in the test with SN12C was > 100 µM (inactive); with HCT-116, 4.25 µM (inactive); with MDA-N, 2.35 µM (inactive); in the test on CAKI-1, > 100 µM (inactive); in the test on HOP-92 it was > 100 µM (inactive); with Hs-578T it was > 100 µM (inactive). Besides, the GI50 in the test with ACHN was > 100 µM (inactive); in the test with OVCAR-3, > 100 µM (inactive); in the test with RPMI-8226 it was 91.8 µM (inactive); with OVCAR-5, > 100 µM (inactive); in the test with HOP-62 it was 54.6 µM (inactive); in the test with U-251, > 100 µM (inactive). Besides, in the test with 786-0, the GI50 was > 100 µM (inactive).

Take `O=c1[nH]c2nc3ccccc3c(=O)n2/c1=C/c1ccccc1`: the GI50 with CCRF-CEM was 40.3 µM (inactive); with SF-539, 22.5 µM (inactive); in the test with HL-60, 56.1 µM (inactive); in the test on IGROV-1, 17.9 µM (inactive); with LOX IMVI, 25.2 µM (inactive); in the test with SK-MEL-28 it was 45.1 µM (inactive). Further, the GI50 is 25.1 µM (inactive) in the test with SN12C; 31.1 µM (inactive) in the test with HCT-116; 25.6 µM (inactive) with MDA-N; 47.4 µM (inactive) with CAKI-1; 20.7 µM (inactive) in the test on HOP-92; 29 µM (inactive) with Hs-578T. Also, the GI50 with ACHN was 47 µM (inactive); in the test with OVCAR-3, 22 µM (inactive); in the test with RPMI-8226, 34.9 µM (inactive); in the test on OVCAR-5, > 100 µM (inactive); in the test with HOP-62 it was > 100 µM (inactive); with U-251, 29.9 µM (inactive). Also, the GI50 in the test on 786-0 is 25.8 µM (inactive).

Regarding `O=c1cc(N2CCNCC2)nc2ccccn12`, the GI50 in the test on CCRF-CEM, in the test with SF-539, in the test on HL-60, in the test with IGROV-1, with LOX IMVI and in the test on SN12C was > 100 µM (inactive) in each case. Besides, the GI50 with HCT-116, in the test with K562, in the test with MDA-N, in the test with CAKI-1, in the test on HOP-92 and in the test on Hs-578T was > 100 µM (inactive) throughout. Besides, the GI50 with ACHN, with OVCAR-3, with RPMI-8226, in the test with OVCAR-5, with HOP-62 and in the test on U-251 was > 100 µM (inactive) throughout. Besides, in the test with 786-0, the GI50 was > 100 µM (inactive).

With `O=C(c1c(Cl)cc(Cl)cc1Cl)N(Cc1cccnc1)C(=S)N(Cc1cccnc1)C(=O)c1c(Cl)cc(Cl)cc1Cl`, the GI50 in the test on CCRF-CEM is 5.56 µM (inactive); in the test with SF-539 it was 11 µM (inactive); in the test on HL-60 it was 7.23 µM (inactive); in the test with LOX IMVI it was 3.65 µM (inactive); in the test on SK-MEL-28 it was 11 µM (inactive); in the test with SN12C it was 5.68 µM (inactive). In addition, the GI50 in the test with HCT-116 is 2.91 µM (inactive); with K562, 4.32 µM (inactive); in the test with MDA-N it was 2.15 µM (inactive); in the test on CAKI-1, 5.32 µM (inactive); in the test with HOP-92, 3.25 µM (inactive); with Hs-578T, 23.9 µM (inactive). Further, the GI50 is 19.1 µM (inactive) with ACHN; 3.77 µM (inactive) in the test on OVCAR-3; 1.27 µM (inactive) in the test with RPMI-8226; 18.5 µM (inactive) with OVCAR-5; 4.35 µM (inactive) in the test with HOP-62; 9.02 µM (inactive) with U-251. In addition, the GI50 with 786-0 is 2.26 µM (inactive).

Take `Nc1ccc(Cc2c(N)[nH]c(=O)[nH]c2=O)cc1`: the GI50 is 39.5 µM (inactive) in the test on CCRF-CEM; > 100 µM (inactive) in the test on SF-539; 85.5 µM (inactive) with HL-60; > 100 µM (inactive) in the test on LOX IMVI; > 100 µM (inactive) with SK-MEL-28; > 100 µM (inactive) in the test on SN12C. Further, the GI50 in the test with HCT-116, with K562, with MDA-N, in the test on CAKI-1, in the test with HOP-92 and in the test with Hs-578T was > 100 µM (inactive) throughout. The GI50 in the test on ACHN, in the test on OVCAR-3, in the test on RPMI-8226, in the test with OVCAR-5, in the test with U-251 and with 786-0 was > 100 µM (inactive) in each case.
